Measured values taken from PubChem BioAssay AID1996.
Values after ≈ are worked out from the molar mass of the structure shown.

Conditions: buffer; pH 7.4; 200.0 µM

SMILES	solubility kinetic [µg/mL]
O=C(NC1CCCCC1)c1ccc(-c2cccc([N+](=O)[O-])c2)o1	2.8 (≈ 8.91 µM)
Cc1cccc(C)c1N1C(=O)CC(N2CCSCC2)C1=O (configuration not stated)	> 45.7
O=C(c1c(F)cccc1F)N1CCC(O)(c2ccc(F)cc2)CC1	49 (≈ 146 µM)
O=C1CSC(c2cccnc2)N1c1ccccc1 (configuration not stated)	> 38.4
c1ccc(CCN2CN=C(Nc3nc4ccccc4s3)NC2)cc1	< 0.1
O=C(NCCCCc1ccccc1)Nc1ccc(F)cc1	2.3 (≈ 8.03 µM)
Cc1cc(=O)cc(C)n1-c1ccccc1N	31.1 (≈ 145 µM)
CCOc1ccccc1CN1CCN(Cc2ccon2)CC1CCO (configuration not stated)	48.9 (≈ 142 µM)
COc1ccccc1N1CCN(C(=O)c2cc3cc(Cl)ccc3[nH]2)CC1	< 0.3
CC(=O)c1ccc(N2CCCCC2)c(F)c1	12.1 (≈ 54.7 µM)
Cc1ccc(S(=O)(=O)N2CCCCC2)cc1C(=O)NCc1ccc(S(N)(=O)=O)cc1	2.8 (≈ 6.2 µM)
CCC(C)N(C)C1CCN(C(=S)Nc2cccc(SC)c2)CC1 (configuration not stated)	> 52.7
CC12CN3CC(C)(CN(C1)C3c1ccc(F)cc1)C2 (configuration not stated)	26.2 (≈ 101 µM)
Cl.NCCN1C(=O)S/C(=C\c2ccc3c(c2)OCO3)C1=O	> 49.3
C=CCn1c(C(C)(C)C)nc2ccccc21	24.6 (≈ 115 µM)
CCn1c(=O)c([N+](=O)[O-])c(NCC2CCCO2)c2ccccc21 (configuration not stated)	47.5 (≈ 150 µM)
Cc1cc(N2CCCC2)nc2c(C)cccc12	7.2 (≈ 31.8 µM)
Cc1cc(C)cc(N2C(=O)CCN(Cc3ccccc3)C2=O)c1	38 (≈ 123 µM)
CC1CN(C(=O)c2ccc(-c3ccccc3Cl)o2)CC(C)O1 (configuration not stated)	34.8 (≈ 109 µM)
O=C1c2cc([N+](=O)[O-])ccc2-c2ncccc21	7.4 (≈ 32.7 µM)
O=C1CN(C(=O)/C=C/c2ccc(Br)cc2)CCN1	41.8 (≈ 135 µM)
CC(C)c1nc(NCCO)c(C#N)c2c1CCCC2	9 (≈ 34.7 µM)
O=C(CSc1ccccc1F)NCC(c1cccs1)N1CCOCC1 (configuration not stated)	> 57.1
CC(C)CCCC(C)CCOC(=O)CN1CCCC1 (configuration not stated)	1.9 (≈ 7.05 µM)
Cc1ccc(N2C(=S)NC3c4ccccc4OC2(C)C3C(=O)N(C)C)cc1 (configuration not stated)	50.9 (≈ 133 µM)
O=C(NC1CCN(C(=O)Nc2ccc(F)cc2)CC1)c1cccc(F)c1	6 (≈ 16.7 µM)

SMILES	solubility kinetic [µg/mL]
CC(C)c1ccccc1NC(=S)NC1CCCCC1	> 41.5
CC(Oc1ccc(F)cc1)C(O)CCN(C)C (configuration not stated)	25.8 (≈ 107 µM)
Fc1ccc(CN2CCN(c3ncccn3)CC2)c(F)c1	32.2 (≈ 111 µM)
O=c1c2oc3ccccc3c2ncn1Cc1ccc(F)cc1	0.8 (≈ 2.72 µM)
COc1cccc(OC)c1C(=O)N1CCNCC1.O=C(O)C(=O)O	49.7
CN(Cc1ccccc1)Cc1c(O)ccc2ccccc12	26.6 (≈ 95.9 µM)
Cc1ccc(OCCCCCN2CCOCC2)c(Cl)c1	26.3 (≈ 88.3 µM)
CN(CCN1CCOCC1)Cc1nc(-c2ccc(Cl)cc2)no1	38.1 (≈ 113 µM)
O=S(=O)(Cc1cc(-c2ccccc2)no1)c1ccccc1	3.4 (≈ 11.4 µM)
O=C1CNC(=S)N1CCCn1ccnc1	31.5 (≈ 140 µM)
O=S(=O)(c1ccc(F)cc1)N1CCN(c2ccc(F)cc2)CC1	0.5 (≈ 1.48 µM)
c1ccc(-c2cc(N3CCCCC3)c3ccccc3n2)cc1	< 0.3
COc1ccc(-c2nc3ccccc3o2)cc1OC	< 0.5
Cc1ccccc1CN1CCc2cc([N+](=O)[O-])ccc21	1.9 (≈ 7.08 µM)
O=C(Nc1ccccc1C(=O)Nc1ccccc1)c1ccccc1Br	0.7 (≈ 1.77 µM)
O=C(O)c1cncc(C#Cc2ccccc2)c1	> 33.5
CC(NC(=O)CN1CCN(Cc2cccc(F)c2)CC1)c1ccccc1 (configuration not stated)	> 53.3
O=S(=O)(c1cccc2cccnc12)N1CCCCC1	> 41.5
CSc1ncccc1C(=O)Nc1cc(Cl)ccc1N1CCOCC1	4.4 (≈ 12.1 µM)
O=C1C2C3CCC(O3)C2C(=O)N1c1cccc(F)c1 (configuration not stated)	39.2 (≈ 150 µM)
O=C1ON=C(c2ccccc2)/C1=C/c1ccc(O)c(O)c1	> 42.2
Cc1ccc(N=C2C(=O)Nc3ccccc32)cc1	30.5 (≈ 129 µM)
O=S(=O)(c1ccc(Cl)nc1)N1CCCCC1	> 39.1
Nc1cc(Cl)ccc1Nc1ccncc1	> 33
CC1CCC2(CC1)NC(=O)N(CC(=O)Nc1ccc3c(c1)OCO3)C2=O (configuration not stated)	15.6 (≈ 43.4 µM)

Continued, values first:

solubility kinetic [µg/mL]	SMILES
> 40.4	COCC(C)NC(=S)Nc1ccccc1[N+](=O)[O-] (configuration not stated)
> 37.3	CCc1nc(N)nc(N)c1-c1ccc(Cl)cc1
42.7 (≈ 137 µM)	CCOC(=O)c1cn(C2CC2)c2c(F)c(F)c(F)cc2c1=O
8.1 (≈ 24.5 µM)	CCc1sc(C(=O)Nc2ccc(N3CCOCC3)cc2)cc1C
> 51.8	Cc1cc(C(=O)COC(=O)C23CC4CC(CC(O)(C4)C2)C3)c(C)n1C
35.6 (≈ 121 µM)	CCOC(=O)COc1c(C(=O)OC)sc2ncccc12
> 47.5	CC(=O)Nc1cccc(OCC(=O)NCCC2=CCCCC2)c1
> 49.6	CC(C)(C)OC(=O)CN1C(=O)NC2(CCCc3ccccc32)C1=O (configuration not stated)
< 0.7	O=C(Nc1ccccc1)OCCOc1ccc(Br)cc1
39.9 (≈ 137 µM)	O=C(NCc1ccccc1Br)c1ccncc1
40.3 (≈ 132 µM)	O=C(COC(=O)c1ccncc1)Nc1cccc2ccccc12
25.5 (≈ 67.9 µM)	CCCS(=O)(=O)c1ccc(COC(=O)c2ccc(NC(C)=O)cc2)cc1
< 0.2	O=C(NCCN1CCCCC1)Nc1cccc(Cl)c1Cl
45.9 (≈ 134 µM)	CCN(CC)CCNC(=O)c1cc2cc3ccc(OC)cc3nc2o1
> 44.8	Cc1c(C(=O)CN2CCCC(C)(C)C2)c2ccccc2n1C
> 53.9	COc1ccccc1-n1ccnc(SCC(=O)NC2CCCC2)c1=O
> 51.1	Cc1onc(-c2ccccc2Cl)c1C(=O)N(C)Cc1ccccc1
5 (≈ 15.6 µM)	O=C(COC(=O)c1ccccc1O)NCc1ccccc1Cl
9.2 (≈ 29.4 µM)	O=C(COC(=O)c1ccccc1)NC12CC3CC(CC(C3)C1)C2
> 43.3	Cc1nn(CC(=O)NC2CCCCC2)c(=O)c2cccn12
> 41.5	CCCNC(=O)NS(=O)(=O)c1ccc(Cl)cc1
4.2 (≈ 10.9 µM)	CC(=O)c1cccc(NC(=O)/C(=C/c2ccncc2)NC(=O)c2ccccc2)c1
> 45.9	COc1ccc(NC(=O)CN(C)C(=O)C2=COCCO2)cc1
< 0.3	COc1cc2sc(NC(=O)c3ccco3)nc2cc1Cl

solubility kinetic [µg/mL]	SMILES
49.9 (≈ 123 µM)	CSc1ccc(S(=O)(=O)N2CCC(C(=O)NCc3ccccn3)CC2)cc1
18.5 (≈ 77.9 µM)	CCOc1ccc(CN2CCSCC2)cc1
18.7 (≈ 59.7 µM)	CCCCn1c(=O)[nH]c(=O)c2c1nc(-c1ccccn1)n2CC
12.5 (≈ 41.8 µM)	CCOc1ccc(NC(=O)C(=O)NCc2ccncc2)cc1
31.8 (≈ 129 µM)	Cc1ccc(NC(=S)Nc2cc(C)on2)cc1
> 46.5	O=C(NCCc1ccncc1)Nc1ccc(Cl)c(Cl)c1
> 47.3	COc1ccc(C(C)=O)cc1CC(=O)NCCCn1ccnc1
46.1 (≈ 124 µM)	CC(C)(CC(=O)O)CC(=O)Nc1cc(C(F)(F)F)cc(C(F)(F)F)c1
> 37.7	Cc1sc2ncnc(NC(C)C(=O)O)c2c1C (configuration not stated)
> 42.5	Cc1cccc(C(=O)NCCNC(=O)c2ccccn2)c1
> 53	C=Cn1cc[n+](CC(=O)c2ccc(OC)c(OC)c2)c1.[Br-]
14.5 (≈ 38.8 µM)	CCc1nc2ccccc2c(C(=O)OCc2nc3ccccc3c(=O)[nH]2)c1C
> 43.8	Cc1cnc(C(=O)OCC(=O)c2ccc(F)c(F)c2)cn1
> 40.7	CC(=O)CSc1nnc2cc(C)c3ccccc3n12
28.8 (≈ 73.4 µM)	Cc1cc(C)cc(N(CCC#N)C(=O)CSc2nc3ccccc3c(=O)[nH]2)c1
> 34.5	CCc1ccccc1NC(=O)c1cc(C)no1
41 (≈ 143 µM)	CCCOc1ccc(N2C(=O)CC(NCC#N)C2=O)cc1 (configuration not stated)
> 50.2	CCOc1ccccc1C(=O)NCC(=O)OCC(=O)N1CCCC1
1.4 (≈ 4.59 µM)	O=C(Nc1cc(Cl)ccc1O)c1cc(-c2ccco2)on1
9.2 (≈ 23.9 µM)	O=C(Cn1cc([N+](=O)[O-])ccc1=O)NCC(=O)Nc1ccc(F)c(F)c1F
42.6 (≈ 129 µM)	O=C(O)CC1(CC(=O)Nc2ccc3sccc3c2)CCCCC1
> 46.1	Cc1ccc(C(=O)CSc2nnc3n2CCCCC3)s1
0.7 (≈ 2.39 µM)	CCOc1ccc(C(=O)Nc2cccc3cccnc23)cc1
> 34.7	CCOC(=O)c1c(O)c(Cl)c(C)[nH]c1=O

solubility kinetic [µg/mL]	SMILES
11.5 (≈ 32.6 µM)	Cc1cccc(NC(=O)NCCN2CCN(c3ccccc3)CC2)c1C
40.7 (≈ 145 µM)	Cc1cccc(Oc2ccc3c(c2)cc(C(=O)O)n3C)c1
28.9 (≈ 102 µM)	CC(C)CCNC(=O)NC(=O)CSc1ncccn1
30.7 (≈ 97.4 µM)	CN(CC(=O)Nc1ccccc1)CC(=O)Nc1ccc(F)cc1
1.5 (≈ 4.01 µM)	CCOC(=O)COc1nc2c(c(-c3ccco3)c1C#N)CCc1ccccc1-2
< 0.6	CCCCNC(=O)C1c2ccccc2Oc2ccccc21
43.4 (≈ 137 µM)	C=CCOC(=O)C1=C(C)NC(=O)NC1c1ccc2c(c1)OCO2 (configuration not stated)
> 47.5	Cc1ccc(OCC(=O)NCCCNC(=O)c2ccco2)cc1
> 58.7	Cc1ccc(C(=O)NCC(=O)OC(C)C(=O)Nc2ccccc2[N+](=O)[O-])s1 (configuration not stated)
> 32.1	CCOC(=O)c1csc(NC(C)=O)n1
45.3 (≈ 126 µM)	COc1cc(OC)cc(C(=O)N[C@H](C(=O)NCc2ccco2)C(C)C)c1
> 48.7	NC(=O)C1CCN(C(=O)c2cc(Cl)c3c(c2)OCCO3)CC1
8.6 (≈ 27.3 µM)	COc1ccc(C)cc1NC(=O)CSCc1ccccc1C
37.2 (≈ 146 µM)	O=C(Nc1ncc([N+](=O)[O-])s1)c1cccs1
24 (≈ 102 µM)	Cn1c(C(=O)c2ccccc2)nc2ccccc21
< 0.6	Cc1ccc2c(Cl)c(C(=O)NC3CC3)sc2c1
1.9 (≈ 6.37 µM)	Cc1ccc(CCC(=O)Nc2cc(Cl)ccc2Cl)o1
> 56.3	COc1cc2c(cc1OC)CN(CC(=O)NC(=O)NC1CCCCC1)CC2
> 69.7	O=C(COC(=O)c1cc(S(=O)(=O)N2CCOCC2)ccc1O)Nc1ccc2c(c1)OCO2
1.2 (≈ 4.37 µM)	COc1ccc(NC(=O)Nc2cc(F)ccc2C)cc1
45.1 (≈ 145 µM)	CCOC(=O)c1ccc(NC(=O)CSCCC(=O)O)cc1
> 46.4	COc1ccc(-c2nnc(SCC(=O)O)n2C)cc1OC
40.7 (≈ 129 µM)	CC(C)(C)OC(=O)N1CCC[C@H]1C(=O)Nc1ccc(C#N)cc1
